Experimental data from patent publication US20260022143A1, “Cyclic Peptide Inhibitors of IL-23” (JANSSEN PHARMACEUTICA NV, priority 2022, published 2026).
Starred links: 1 amine or outer side, 2 acyl side, 3 side chain; linkers in the order of their positions; H or OH if unused. Positions of bridges follow the written chain, without caps; N, C: chain ends. Non-standard residues stand in square brackets, D forms with d. Residues, ends and D or L forms follow the SMILES beside them. *: point of attachment. Me3N+CH2CH2(OCH2CH2)4CO = C[N+](C)(C)CCOCCOCCOCCOCCC(=O)*; Me3N+(CH2)2O(CH2)2O(CH2)2CO = C[N+](C)(C)CCOCCOCCC(=O)*; CH2CH2OCH2CH2OCH2CH2NMe3+ = C[N+](C)(C)CCOCCOCC*; Trp(7-Me) = Cc1cccc2c(C[C@H](N)C(=O)O)c[nH]c12; Dab(NMeAc) = CC(=O)N(C)CC[C@H](N)C(=O)O; X1 = CN(CC[C@H](N[*:1])C(=O)[*:2])[*:3]; 2Nal = N[C@@H](Cc1ccc2ccccc2c1)C(=O)O; AEF = NCCOc1ccc(C[C@H](N)C(=O)O)cc1; 3Pal = N[C@@H](Cc1cccnc1)C(=O)O; Lys(Me) = CNCCCC[C@H](N)C(=O)O; Pen = CC(C)(S)[C@H](N)C(=O)O; X37 = C[N+]1(C)CCN(CC*)CC1; X57 = C[N+]1(C)CCC(CC*)CC1; Thp = NC1(C(=O)O)CCOCC1; X17 = C[N+]1(CC*)CCOCC1; Sar = CNCC(=O)O

How the values were obtained:
[1] = Exposed Polar Surface Area (EPSA); assay type: physicochemical; settings: SFC on Chirex 3014 column; sample 1 mM DMSO stock; read-out: EPSA
Method in brief: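 Chirex 3014 column, 35 °C, 4 mL/min; CO2/MeOH + 20 mM NH4 formate, 5→60% modifier at 20%/min. UV/MS detection. EPSA (Å^2) from retention time vs 8-standard calibration line; duplicates; 1 mM DMSO stock injected undiluted.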

IL-23R = biological target: T1, IL-23R (Homo sapiens, UniProt Q5VWK5); test: IL23R Reporter Assay; assay type: cell-based; settings: HEK293 cells containing IL-23R, IL-12RP1 and STAT-inducible firefly luciferase reporter; 10 ng/mL IL-23 (EC90); 5 h at 37° C.; read-out: IL23R Reporter Assay
T1 construct: host or cells: HEK293
T1 sequence (Q5VWK5 24-629): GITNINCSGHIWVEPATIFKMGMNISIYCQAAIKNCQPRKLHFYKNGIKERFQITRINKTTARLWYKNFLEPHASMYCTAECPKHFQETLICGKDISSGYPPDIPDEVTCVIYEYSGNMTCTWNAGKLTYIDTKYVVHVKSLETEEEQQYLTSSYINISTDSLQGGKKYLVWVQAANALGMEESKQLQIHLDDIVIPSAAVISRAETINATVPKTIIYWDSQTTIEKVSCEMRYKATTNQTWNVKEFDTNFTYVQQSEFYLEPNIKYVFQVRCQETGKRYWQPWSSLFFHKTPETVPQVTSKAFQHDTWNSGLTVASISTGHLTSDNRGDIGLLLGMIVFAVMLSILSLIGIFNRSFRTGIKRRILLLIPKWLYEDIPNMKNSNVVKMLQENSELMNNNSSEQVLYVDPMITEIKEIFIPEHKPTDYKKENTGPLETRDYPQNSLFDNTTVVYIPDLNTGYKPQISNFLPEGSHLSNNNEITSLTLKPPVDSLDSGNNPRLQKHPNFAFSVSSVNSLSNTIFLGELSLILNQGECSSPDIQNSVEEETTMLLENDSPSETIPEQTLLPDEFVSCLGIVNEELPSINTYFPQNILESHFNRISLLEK

| EPSA [1] [A^2] | IC50 (IL-23R) [nM] | Structure (SMILES) |
| --- | --- | --- |
| 144 | 3.1 | CC(=O)N(C)CC[C@H](NC(=O)C1(NC(=O)[C@H](Cc2ccc3ccccc3c2)NC(=O)[C@H](Cc2ccc(OCCN)cc2)NC(=O)[C@H]2NC(=O)[C@H](CCC(=O)N(C)C)NC(=O)[C@H](Cc3c[nH]c4c(C)cccc34)NC(=O)[C@H]([C@@H](C)O)NC(=O)[C@H](CC(=O)N(C)C)NC(=O)[C@@H](NC(=O)CCOCCOCCOCCOCC[N+](C)(C)C)C(C)(C)SSC2(C)C)CCOCC1)C(=O)N[C@@H](CC(N)=O)C(=O)N[C@@H](Cc1cccnc1)C(=O)N(C)CC(=O)N(C)C [compound 173, cPEG5aCO-Pen(3)-N(N(Me)2)-T-7MeW-Q(N(Me)2)-Pen(3)-AEF-2Nal-THP-Dab(NMeAc)-N-3Pya-Sar-CON(Me)2] ({Me3N+CH2CH2(OCH2CH2)4CO}-[Pen]D(NMe2)T[Trp(7-Me)]E(NMe2)[Pen][AEF][2Nal][Thp][Dab(NMeAc)]N[3Pal][Sar]-NMe2; disulfide 1-6 (inferred)) |
| 140 | 6.3 | CC(=O)N[C@@H]1C(=O)N[C@@H](CC(=O)N(C)C)C(=O)N[C@@H]([C@@H](C)O)C(=O)N[C@@H](Cc2c[nH]c3c(C)cccc23)C(=O)N[C@@H](CCN(C)C(=O)CCOCCOCC[N+](C)(C)C)C(=O)N[C@H](C(=O)N[C@@H](Cc2ccc(OCCN)cc2)C(=O)N[C@@H](Cc2ccc3ccccc3c2)C(=O)NC2(C(=O)N[C@@H](CCN(C)C(=O)CCOCCOCC[N+](C)(C)C)C(=O)N[C@@H](CC(N)=O)C(=O)N[C@@H](Cc3cccnc3)C(=O)N(C)CC(=O)N(C)C)CCOCC2)C(C)(C)SSC1(C)C [compound 175, MeCO-Pen(3)-N(N(Me)2)-T-7MeW-Dab(NMecPEG3a)-Pen(3)-AEF-2Nal-THP-Dab(NMecPEG3a)-N-3Pya-Sar-CON(Me)2] (Ac-[Pen]D(NMe2)T[Trp(7-Me)][X1](Me3N+(CH2)2O(CH2)2O(CH2)2CO)[Pen][AEF][2Nal][Thp][X1](Me3N+(CH2)2O(CH2)2O(CH2)2CO)N[3Pal][Sar]-NMe2; disulfide 1-6 (inferred)) |
| 149 | 2 | CC(=O)N(C)CCCC[C@@H]1NC(=O)[C@H](Cc2c[nH]c3c(C)cccc23)NC(=O)[C@H]([C@@H](C)O)NC(=O)[C@H](CC(=O)N(C)C)NC(=O)[C@@H](NC(=O)CCOCCOCC[N+](C)(C)C)C(C)(C)SSC(C)(C)[C@@H](C(=O)N[C@@H](Cc2ccc(OCCN)cc2)C(=O)N[C@@H](Cc2ccc3ccccc3c2)C(=O)NC2(C(=O)N[C@@H](CCN(C)C(C)=O)C(=O)N[C@@H](CC(N)=O)C(=O)N[C@@H](Cc3cccnc3)C(=O)N(C)CC(=O)N(C)C)CCOCC2)NC1=O [compound 177, cPEG3aCO-Pen(3)-N(N(Me)2)-T-7MeW-K(NMeAc)-Pen(3)-AEF-2Nal-THP-Dab(NMeAc)-N-3Pya-Sar-CON(Me)2] ({Me3N+(CH2)2O(CH2)2O(CH2)2CO}-[Pen]D(NMe2)T[Trp(7-Me)][Lys(Me)](Ac)[Pen][AEF][2Nal][Thp][Dab(NMeAc)]N[3Pal][Sar]-NMe2; disulfide 1-6) |
| 154 | 2 | CC(=O)N(C)CC[C@H](NC(=O)C1(NC(=O)[C@H](Cc2ccc3ccccc3c2)NC(=O)[C@H](Cc2ccc(OCCN)cc2)NC(=O)[C@H]2NC(=O)[C@H](CCC(=O)N(C)C)NC(=O)[C@H](Cc3c[nH]c4c(C)cccc34)NC(=O)[C@H]([C@@H](C)O)NC(=O)[C@H](CC(N)=O)NC(=O)[C@@H](NC(=O)CCOCCOCC[N+](C)(C)C)C(C)(C)SSC2(C)C)CCOCC1)C(=O)N[C@@H](CC(N)=O)C(=O)N[C@@H](Cc1cccnc1)C(=O)N(C)CC(N)=O [compound 178, cPEG3aCO-Pen(3)-N-T-7MeW-Q(N(Me)2)-Pen(3)-AEF-2Nal-THP-Dab(NMeAc)-N-3Pya-Sar-CONH2] ({Me3N+(CH2)2O(CH2)2O(CH2)2CO}-[Pen]NT[Trp(7-Me)]E(NMe2)[Pen][AEF][2Nal][Thp][Dab(NMeAc)]N[3Pal][Sar]-NH2; disulfide 1-6) |
| 133 | 1.8 | CC(=O)N[C@@H]1C(=O)N[C@@H](CC(=O)N(C)C)C(=O)N[C@@H]([C@@H](C)O)C(=O)N[C@@H](Cc2c[nH]c3c(C)cccc23)C(=O)N[C@@H](CCCCN(C)C(C)=O)C(=O)N[C@H](C(=O)N[C@@H](Cc2ccc(OCCOCCOCC[N+](C)(C)C)cc2)C(=O)N[C@@H](Cc2ccc3ccccc3c2)C(=O)NC2(C(=O)N[C@@H](CCCCN(C)C(C)=O)C(=O)N[C@@H](CC(N)=O)C(=O)N[C@@H](Cc3cccnc3)C(=O)N(C)CC(=O)N(C)C)CCOCC2)C(C)(C)SSC1(C)C [compound 183, MeCO-Pen(3)-N(N(Me)2)-T-7MeW-K(NMeAc)-Pen(3)-APEG3F-2Nal-THP-K(NMeAc)-N-3Pya-Sar-CON(Me)2] (Ac-[Pen]D(NMe2)T[Trp(7-Me)][Lys(Me)](Ac)[Pen]Y(CH2CH2OCH2CH2OCH2CH2NMe3+)[2Nal][Thp][Lys(Me)](Ac)N[3Pal][Sar]-NMe2; disulfide 1-6) |
| 142 | 3.4 | CC(=O)N(C)CCCC[C@@H]1NC(=O)[C@H](Cc2c[nH]c3c(C)cccc23)NC(=O)[C@H]([C@@H](C)O)NC(=O)[C@H](CC(=O)N(C)C)NC(=O)[C@@H](NC(=O)CCOCCOCC[N+](C)(C)C)C(C)(C)SSC(C)(C)[C@@H](C(=O)N[C@@H](Cc2ccc(OCCOCCOCC[N+](C)(C)C)cc2)C(=O)N[C@@H](Cc2ccc3ccccc3c2)C(=O)NC2(C(=O)N[C@@H](CCC(=O)O)C(=O)N[C@@H](CC(N)=O)C(=O)N[C@@H](Cc3cccnc3)C(=O)N(C)CC(=O)N(C)C)CCOCC2)NC1=O [compound 184, cPEG3aCO-Pen(3)-N(N(Me)2)-T-7MeW-K(NMeAc)-Pen(3)-APEG3F-2Nal-THP-E-N-3Pya-Sar-CON(Me)2] ({Me3N+(CH2)2O(CH2)2O(CH2)2CO}-[Pen]D(NMe2)T[Trp(7-Me)][Lys(Me)](Ac)[Pen]Y(CH2CH2OCH2CH2OCH2CH2NMe3+)[2Nal][Thp]EN[3Pal][Sar]-NMe2; disulfide 1-6) |
| 137 | 86 | CC(=O)N(C)CCCC[C@@H]1NC(=O)[C@H](Cc2c[nH]c3c(C)cccc23)NC(=O)[C@H]([C@@H](C)O)NC(=O)[C@H](CC(=O)N(C)C)NC(=O)[C@@H](NC(=O)CCOCCOCC[N+](C)(C)C)C(C)(C)SSC(C)(C)[C@@H](C(=O)N[C@@H](Cc2ccc(OCCC3CC[N+](C)(C)CC3)cc2)C(=O)N[C@@H](Cc2ccc3ccccc3c2)C(=O)NC2(C(=O)N[C@@H](CCCCN(C)C(C)=O)C(=O)N[C@@H](CC(N)=O)C(=O)N[C@@H](Cc3cccnc3)C(=O)N(C)CC(=O)N(C)C)CCOCC2)NC1=O [compound 187, cPEG3aCO-Pen(3)-N(N(Me)2)-T-7MeW-K(NMeAc)-Pen(3)-4DMPEF-2Nal-THP-K(NMeAc)-N-3Pya-Sar-CON(Me)2] ({Me3N+(CH2)2O(CH2)2O(CH2)2CO}-[Pen]D(NMe2)T[Trp(7-Me)][Lys(Me)](Ac)[Pen]Y(X57)[2Nal][Thp][Lys(Me)](Ac)N[3Pal][Sar]-NMe2; disulfide 1-6) |
| 135 | 40 | CC(=O)N(C)CCCC[C@@H]1NC(=O)[C@H](Cc2c[nH]c3c(C)cccc23)NC(=O)[C@H]([C@@H](C)O)NC(=O)[C@H](CC(=O)N(C)C)NC(=O)[C@@H](NC(=O)CCOCCOCC[N+](C)(C)C)C(C)(C)SSC(C)(C)[C@@H](C(=O)N[C@@H](Cc2ccc(OCCN3CC[N+](C)(C)CC3)cc2)C(=O)N[C@@H](Cc2ccc3ccccc3c2)C(=O)NC2(C(=O)N[C@@H](CCCCN(C)C(C)=O)C(=O)N[C@@H](CC(N)=O)C(=O)N[C@@H](Cc3cccnc3)C(=O)N(C)CC(=O)N(C)C)CCOCC2)NC1=O [compound 193, cPEG3aCO-Pen(3)-N(N(Me)2)-T-7MeW-K(NMeAc)-Pen(3)-4DMPzEF-2Nal-THP-K(NMeAc)-N-3Pya-Sar-CON(Me)2] ({Me3N+(CH2)2O(CH2)2O(CH2)2CO}-[Pen]D(NMe2)T[Trp(7-Me)][Lys(Me)](Ac)[Pen]Y(X37)[2Nal][Thp][Lys(Me)](Ac)N[3Pal][Sar]-NMe2; disulfide 1-6) |
| 144 | 3.1 | CC(=O)N(C)CCCC[C@@H]1NC(=O)[C@H](Cc2c[nH]c3c(C)cccc23)NC(=O)[C@H]([C@@H](C)O)NC(=O)[C@H](CC(=O)N(C)C)NC(=O)[C@@H](NC(=O)CCOCCOCC[N+](C)(C)C)C(C)(C)SSC(C)(C)[C@@H](C(=O)N[C@@H](Cc2ccc(OCC[N+]3(C)CCOCC3)cc2)C(=O)N[C@@H](Cc2ccc3ccccc3c2)C(=O)NC2(C(=O)N[C@@H](CCCCN(C)C(C)=O)C(=O)N[C@@H](CC(N)=O)C(=O)N[C@@H](Cc3cccnc3)C(=O)N(C)CC(=O)N(C)C)CCOCC2)NC1=O [compound 198, cPEG3aCO-Pen(3)-N(N(Me)2)-T-7MeW-K(NMeac)-Pen(3)-MMoEF-2Nal-THP-K(NMeAc)-N-3Pya-Sar-CON(Me)2] ({Me3N+(CH2)2O(CH2)2O(CH2)2CO}-[Pen]D(NMe2)T[Trp(7-Me)][Lys(Me)](Ac)[Pen]Y(X17)[2Nal][Thp][Lys(Me)](Ac)N[3Pal][Sar]-NMe2; disulfide 1-6) |
